Data from ChEMBL document CHEMBL3832028, “DailyMed|setid=372af566-d6ec-446f-88db-0b4cc83b577f | GLYBURIDE AND METTFORMIN HYDROCHLORIDE - glyburide and hydrochloride tablet, film coated| Citron Pharma LLC”.

Test: Tmax for Glyburide following single oral co-administration of 5 mg glyburide and 500 mg metformin hydrochloride to feeding subjects.
Format: ADME, organism-based
Settings: human, in vivo, dietary status Fed, dosed compound id 13, dosed compound name GLYBURIDE, regimen Single dose, tissue Plasma

COc1ccc(Cl)cc1C(=O)NCCc1ccc(S(=O)(=O)NC(=O)NC2CCCCC2)cc1 [GLYBURIDE]
Tmax: 2.75 h
